Experiment [1] addresses T1, DNMT3B/3L (Homo sapiens, UniProt Q9UBC3).
T1 construct: purchased Structural Genomics Consortium (SGC Toronto) in-house methyltransferase panel
Description: Methyltransferase selectivity assay (filter-based). The following applies: for activity at 1 µM: 1µM compound; for activity at 10 µM / Activity %: 10µM compound; for Activity %: Exp1, Exp2, 10 µM. In kind it is biochemical. As for the experimental part:
(§1) Selectivity against methyltransferases were determined as described previously. Details of the assays are described in the supplementary methods.
(§2) Methyltransferase selectivity assay1
The effect of chemical probes and negative controls on the methyltransferase activities of protein, DNA and RNA methyltransferases was tested by radiometric assays using 3H-SAM. […]
The counts per minute (CPM) was measured on a TopCount plate reader. The CPM in the absence of compound or enzyme was defined as 100% activity and background (0%), respectively, for each dataset. […]
For proteins which were tested with nucleosome as substrate such as DOT1L, NSD1, NSD2, NSD3, and ASH1L, or unbiotinylated Poly(2′-deoxyinosinic-2′-deoxycytidylic acid) (Cat# 81349-500UG, Sigma Aldrich) such as DNMT3A/3L, and DNMT3B/3L, a filter-based assay was used. In this assay, a trichloroacetic acid (TCA) protein precipitation protocol was employed. A 10 µL reaction mixture was incubated at 23°C for 1 h, followed by addition of 50 µL of 10% TCA. The mixture was transferred to filter plates (Millipore, Billerica, MA, USA) that were centrifuged at 2000 rpm (Allegra X-15R; Beckman Coulter, Brea, CA, USA) for 2 min. Samples were washed twice with 10% TCA and once with ethanol (180 µL), and centrifuged. After drying, 100 µL MicroScint-O (Perkin Elmer) was added to each well and the plates were centrifuged to remove the liquid. A 70 µL volume of MicroScint-O was added and the CPM was measured with a TopCount plate reader.

Experiment [2] deals with T2, DNMT1 (Homo sapiens, UniProt P26358).
T2 construct: purchased Structural Genomics Consortium (SGC Toronto) in-house methyltransferase panel
T2 sequence (P26358 whole entry): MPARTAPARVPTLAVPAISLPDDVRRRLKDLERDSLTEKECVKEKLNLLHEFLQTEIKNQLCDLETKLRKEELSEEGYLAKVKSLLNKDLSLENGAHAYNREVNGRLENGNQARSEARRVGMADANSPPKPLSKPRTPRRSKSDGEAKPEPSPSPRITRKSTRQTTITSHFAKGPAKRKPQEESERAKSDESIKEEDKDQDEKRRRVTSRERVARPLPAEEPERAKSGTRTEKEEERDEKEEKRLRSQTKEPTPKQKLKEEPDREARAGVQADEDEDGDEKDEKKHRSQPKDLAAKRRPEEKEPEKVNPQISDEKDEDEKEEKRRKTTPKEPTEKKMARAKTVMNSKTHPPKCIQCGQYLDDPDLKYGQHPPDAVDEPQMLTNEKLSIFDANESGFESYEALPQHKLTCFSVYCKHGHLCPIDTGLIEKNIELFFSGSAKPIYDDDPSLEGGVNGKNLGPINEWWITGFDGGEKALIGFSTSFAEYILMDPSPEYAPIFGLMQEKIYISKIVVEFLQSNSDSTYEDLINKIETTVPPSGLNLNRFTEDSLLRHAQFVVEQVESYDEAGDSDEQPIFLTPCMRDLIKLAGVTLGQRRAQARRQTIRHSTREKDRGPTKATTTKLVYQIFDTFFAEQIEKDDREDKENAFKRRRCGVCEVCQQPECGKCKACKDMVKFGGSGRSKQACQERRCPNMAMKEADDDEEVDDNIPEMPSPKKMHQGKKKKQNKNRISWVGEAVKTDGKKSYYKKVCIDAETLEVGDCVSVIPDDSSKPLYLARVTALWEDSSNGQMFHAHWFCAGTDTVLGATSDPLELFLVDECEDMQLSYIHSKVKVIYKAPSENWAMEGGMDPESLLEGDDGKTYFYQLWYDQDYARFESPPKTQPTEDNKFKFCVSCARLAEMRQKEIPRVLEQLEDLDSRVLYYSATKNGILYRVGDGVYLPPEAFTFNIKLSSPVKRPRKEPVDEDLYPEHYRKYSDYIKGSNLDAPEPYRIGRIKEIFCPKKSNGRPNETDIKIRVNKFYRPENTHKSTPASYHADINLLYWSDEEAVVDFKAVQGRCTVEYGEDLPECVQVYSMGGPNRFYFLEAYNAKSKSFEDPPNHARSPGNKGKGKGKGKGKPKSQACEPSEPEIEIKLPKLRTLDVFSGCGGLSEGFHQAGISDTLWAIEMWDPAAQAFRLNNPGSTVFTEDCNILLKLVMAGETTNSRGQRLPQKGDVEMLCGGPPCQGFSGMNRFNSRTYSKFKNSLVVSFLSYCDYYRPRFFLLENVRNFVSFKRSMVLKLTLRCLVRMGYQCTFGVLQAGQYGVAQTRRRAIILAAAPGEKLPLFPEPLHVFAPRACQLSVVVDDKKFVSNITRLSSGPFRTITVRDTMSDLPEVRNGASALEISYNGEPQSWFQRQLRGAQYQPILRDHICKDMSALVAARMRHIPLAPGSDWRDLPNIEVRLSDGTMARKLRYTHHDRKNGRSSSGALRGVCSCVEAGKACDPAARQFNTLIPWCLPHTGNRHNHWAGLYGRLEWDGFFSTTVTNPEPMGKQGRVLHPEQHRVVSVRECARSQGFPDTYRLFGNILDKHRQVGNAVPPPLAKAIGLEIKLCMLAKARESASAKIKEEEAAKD
Description: Methyltransferase selectivity assay (SPA). In kind it is biochemical. The protocol: as §1, §2
The effect of chemical probes and negative controls on the methyltransferase activities of protein, DNA and RNA methyltransferases was tested by radiometric assays using 3H-SAM. For proteins such as MLL1 trimeric, MLL3 pentameric, EZH1 (PRC2) pentameric, and EZH2 (PRC2) trimeric complexes, as well as G9a, GLP, SUV39H1, SUV39H2, SUV420H1, SUV420H2, SETD2, SETD8, SETDB1, SETD7, PRMT1, PRMT3, PRMT4, PRMT5/ MEP50 complex, PRMT6, PRMT7, PRMT8, PRMT9, PRDM9, SMYD2, SMYD3, DNMT1, and BCDIN3D the incorporation of a tritium-labeled methyl group into biotinylated substrate was monitored using scintillation proximity assay (SPA). Briefly, a 10 µL reaction containing 3H-SAM and substrate at concentrations close to the apparent Km values for each enzyme (balanced conditions) was prepared. The reactions were quenched with 10 µL of 7.5 M guanidine hydrochloride; 180 µL of 20 mM Tris buffer (pH 8.0) were added, and the mixture was transferred to a 96-well FlashPlate and incubated for 1 h. The counts per minute (CPM) was measured on a TopCount plate reader. The CPM in the absence of compound or enzyme was defined as 100% activity and background (0%), respectively, for each dataset. For DNMT1, the double-stranded DNA substrate was prepared by annealing two complementary strands (biotinylated forward strand: B-[…] and reverse strand: […]

For experiment [3], the system named is NanoLuc-tagged PRDM9 (residues 135–285). Description: NanoLuciferase thermal shift assay (NALTSA) in HEK293T cells. In kind it is cell-based, human. The note with it: for Tm of PRDM9 in cells (NALTSA): 0.1% DMSO, DMSO control Tm 52 ± 0.3 °C; for ∆Tm (°C): Fig. 5b, replicates; for Normalized_Signal: Fig. 5a, independent replicates. The protocol: Cells treated with 0.1% DMSO alone were used as a control.
Shown is the mean ± SEM of three biological replicates. Boxes indicate the mean values. P-values calculated using an unpaired Welch’s two-tailed t-test, *p-value = 0.017. Source data are provided as a Source Data file.
NALTSA assays were performed as previously described. Briefly, HEK293T cells were plated in 6-well plates at a density of 1.5 × 10^5 cells/mL. The following day, cells were transfected with 2 µg of C-terminally NanoLuc®-tagged PRDM9 (residues 135–285) with X-tremeGene HP DNA Transfection Reagent (Roche). Cells were incubated for 24 h, trypsinized and resuspended at 1.5 × 10^5 cells/mL in 1x PBS supplemented with protease inhibitors. Cell suspensions were incubated at 37 °C with 10 μM compound or 0.1% DMSO alone for 1 h. Sixty microliters of cells was dispensed per well of a 96-well PCR plate followed by heating across a temperature gradient for 3 min on a Mastercycler® thermal cycler (Eppendorf). After heating, samples were transferred to a 96-well white plastic plate (Corning) and Glo® Substrate (Promega) was added to each well at 1:1000 final dilution. NanoLuciferase signal was read at 450 nm (filter: 450 nm/BP 80 nm) on a CLARIOstar microplate reader (Mandel).

The mark [4] stands for this setting: 10µM compound, Exp1, Exp2, 10 µM.
Setting [5] is: Exp1, Exp2, read-out: Activity %.

Several values for one entry are separate records, joined by “and”; a condition that tells them apart may be missing. Equal entries are not always repeated. Where two headings read alike, the source gives them in different places.

`COc1cc(OC)cc(-c2noc(N3CCN(C)C4(CCN(c5ccccc5)CC4)C3)n2)c1` [MRK-740 -NC]: the activity at 1 µM in experiment [1] (Exp1, Exp2) came to 101%; in experiment [2] (1µM compound, Exp1, Exp2), 105%. Moreover, the activity at 10 µM worked out at 99% in experiment [1] (Exp1, Exp2) and 102% in experiment [2] (10µM compound, Exp1, Exp2). In addition, the Activity % was 97% in experiment [1] and 98% in experiment [2] (setting [4]).
`COc1cc(OC)cc(-c2noc(N3CCN(C)C4(CCN(c5ccccc5)CC4)C3)n2)c1` [MRK-740-NC]: the “Tm of PRDM9 in cells (NALTSA)” value in experiment [3] (10 µM compound, 1 h) turned out to be 51.6 ± 0.3 °C. Moreover, the “∆Tm (°C)” value in experiment [3] was 0.2175 °C and -0.9409 °C and -0.4232 °C. In addition, the Normalized_Signal in experiment [3] (Temperature 41.9 °C) is 1; in experiment [3] (Temperature 42.4 °C), 0.9008 and 0.9609 and 1.092; in experiment [3] (Temperature 43.6 °C), 0.8855 and 0.9556 and 0.9997; in experiment [3] (Temperature 45.5 °C), 0.873 and 0.8101 and 0.9461; in experiment [3] (Temperature 47.8 °C) it was 0.7977 and 0.6572 and 0.8375; in experiment [3] (Temperature 50.4 °C) it was 0.6003 and 0.5454 and 0.5984. In addition, the Normalized_Signal in experiment [3] (Temperature 53.1 °C) was 0.5018 and 0.4469 and 0.4089; in experiment [3] (Temperature 55.8 °C), 0.3624 and 0.3667 and 0.3326; in experiment [3] (Temperature 58.1 °C) it was 0.3387 and 0.2885 and 0.2383; in experiment [3] (Temperature 60.1 °C) it was 0.2284 and 0.1546 and 0.1556; in experiment [3] (Temperature 61.5 °C), 0.2018 and 0.1276 and 0.1034; in experiment [3] (Temperature 62.1 °C), 0.1991 and 0.1124 and 0.111.
As for `COc1cc(OC)cc(-c2noc(N3CCN(C)C4(CCN(c5ccnc(C)c5)CC4)C3)n2)c1` [MRK-740], the activity at 1 µM in experiment [1] (setting [5]) was found to be 100%; in experiment [2] (1µM compound, Exp1, Exp2, read-out: Activity %), 98%. For the same compound, the Activity % stood at 90% in experiment [1]; 95% in experiment [2] (1µM compound, Exp1, Exp2, 1 µM); 101% in experiment [2] (setting [4]). In addition, the activity at 10 µM worked out at 82% in experiment [1] (setting [5]) and 99% in experiment [2] (10µM compound, Exp1, Exp2, read-out: Activity %). Further, in experiment [3] (10 µM compound, 1 h), the “Tm of PRDM9 in cells (NALTSA)” value came to 54 ± 0.2 °C. Further, the “∆Tm of PRDM9 in cells (NALTSA)” value in experiment [3] (10 µM compound, 1 h, versus DMSO) came to 2 °C. Also, in experiment [3], the “∆Tm (°C)” value was 2.141 °C and 1.141 °C and 2.73 °C. Besides, the Normalized_Signal was 1 in experiment [3] (Temperature 41.9 °C); 1.082 and 0.9671 and 1.026 in experiment [3] (Temperature 42.4 °C); 1.044 and 1.056 and 1.097 in experiment [3] (Temperature 43.6 °C); 1.058 and 1.067 and 0.973 in experiment [3] (Temperature 45.5 °C); 1.041 and 0.9815 and 0.9273 in experiment [3] (Temperature 47.8 °C); 0.9323 and 0.8369 and 0.6881 in experiment [3] (Temperature 50.4 °C). The Normalized_Signal in experiment [3] (Temperature 53.1 °C) is 0.6552 and 0.5708 and 0.5431; in experiment [3] (Temperature 55.8 °C), 0.4561 and 0.4452 and 0.3801; in experiment [3] (Temperature 58.1 °C) it was 0.3081 and 0.2709 and 0.2289; in experiment [3] (Temperature 60.1 °C) it was 0.1968 and 0.1844 and 0.1466; in experiment [3] (Temperature 61.5 °C) it was 0.1518 and 0.1586 and 0.1205; in experiment [3] (Temperature 62.1 °C), 0.1417 and 0.1648 and 0.1053.
